# Measured values published in patent US20240181015A1, “EFFECT OF GHRH ANTAGONISTS IN DIABETES AND OBESITY” (AUGUSTA UNIVERSITY RESEARCH INSTITUTE, INC., priority 2021, published 2024).
# Ends that are not written are not given here.
# Legend:
# [1] = tested on: wild type mice fed on high fat diet (HFD); assay: ApoB-48 and MTTP protein content in scrapped small intestine epithelium of HFD mice; assay type: in vivo; conditions: 25 μg/kg/day subcutaneous every other day for 4 weeks, vs untreated HFD mice
# Experimental: The protein expression of microsomal triglyceride transfer protein (MTTP), an enzyme involved in ApoB-48 lipoprotein assembly, in protein extracts isolated from scrapped epithelium of whole small intestine of mice were evaluated. Densitometric analysis (optical density O.D., fold over Ctrl diet fed mice) of ApoB-48 (FIG. 11B) and MTTP ([…]) corrected by protein loading (vinculin) (FIG. 11A) was performed. Mice fed on HFD were treated with GHRH antagonist AVR-352 (Antago, 25 μg/kg/day, subcutaneous, every other day for 4 weeks).
# [2] = tested on: C57BL/6 wild type male mice fed on high fat diet (HFD); assay: CLAMS (body weight gain, activity-ambient) in HFD mice treated with AVR-352; assay type: in vivo; conditions: HFD 12 weeks, then 25 μg/kg/day subcutaneous for 4 weeks, vs untreated HFD mice
# Experimental: 8 to 10-Week old C57BL/6 wild type male mice were fed on a high fat diet (HFD) for 12-weeks. Mice were then treated with the GHRH antagonist AVR-352 (25 μg/kg/day, subcutaneous) or vehicle for 4-weeks. At the end of treatment, mice were placed individually in metabolic (CLAMS) system. Body weight was recorded at beginning of treatment and at time of CLAMS after 4-weeks of treatment with the GHRH antagonist AVR-352 or vehicle. Activity-ambient (counts/day) was also measured.
# [3] = tested on: diet-induced obesity (DIO) C57BL/6 mice; assay: Fasting triglyceride levels in diet-induced obesity (DIO) C57BL/6 mice; assay type: in vivo; conditions: HFD 24 weeks; 25 μg/kg/day subcutaneous for last 12 weeks; vs untreated HFD mice
# Experimental: C57BL/6 mice, 12 weeks of age were fed on a normal control diet (CD) or diet supplemented with high levels of fat (HFD) for 12 weeks, before treatment with GHRH antagonist, AVR-352 (25 μg/kg/day, subcutaneous) or vehicle for 12 weeks. Total triglycerides in plasma (TG ELISA kit, MyBioSource) were measured.
# [4] = tested on: wild type mice fed on high fat diet (HFD); assay: Postprandial triglyceride plasma levels after oral lipid loading in high fat diet fed mice; assay type: in vivo; conditions: HFD 16 weeks, 25 μg/kg/day subcutaneous every other day for last 4 weeks, up to 2 hours after oral lipid loading
# Source text: Both 8-week old wild type mice with intact ghrhr gene, and ghrhr conditional knock out mice were fed a high fat or control diet for 16 weeks. The effect of selective deletion of the ghrhr gene in the small intestine versus the effect of the GHRH antagonist AVR-352 or vehicle treatment for the last 4 weeks in wild type mice when both groups were fed a high fat diet, on fasting and postprandial triglyceride plasma levels were compared. The Ghrhr floxed mice using embryonic ES Cells was generated (International Mouse Phenotyping Consortium—IMPC). The ES cell clones were targeted with a floxed allele of Ghrhr with exons 2-5 flanked by loxP sites, and were injected into C57BL/6-Albino blastocysts for chimera production and generation of Ghrhr flox/wt mice (Animal Models Core, UNC, Project ID: Ex231). The colony was expanded and obtained the homozygous Ghrhr flox/flox mice, which were cross bred with mice expressing Cre recombinase in the small intestine (B6.Cg-Tg(Vil1-cre) 1000 Gum/J, Jackson Laboratories). Recombinase activity results in the deletion of loxP flanked targets in the intestine.
# Mice with the deletion of GHRH receptor in small intestine epithelium (HOMO) were fed on high fat diet (HFD) or control diet (Ctrl diet) for 16 weeks. AVR-352 (25 μg/kg/day, subcutaneous, every other day), was given to wild type mice after 12 weeks of high fat diet (HFD) for 4 weeks.
# [5] = tested on: human small intestine epithelial cells (hulECs); assay: ApoB-48 secretion by huIEC loaded with oleic acid; assay type: cell-based
# Experimental: FIG. 14 is a bar graph showing confluent monolayers of human small intestine epithelial cells (hulECs, ATCC) were cultured in 6-well plates and loaded or not with oleic acid after treatments. ApoB-48 was measured in culture supernatants. GHRH agonist JI-34 (1 μM, 1 h) impaired the actions of the GLP-1 receptor agonist exendin 4 (Ex-4, 10 nM, 2 h) on reducing the ApoB48 secretion upon loading hulEC with oleic acid (0.5 mM, 3 h). This effect was completely blunted by co-treatment of cells with the GHRH antagonist MIA-602 (1 μM, 1 h).
# FIG. 15 is a bar graph showing confluent monolayers of human small intestine epithelial cells (hulECs, ATCC) were cultured in 6-well plates and loaded or not with oleic acid after treatments. ApoB-48 was measured in culture supernatants.
# Confluent monolayers of human small intestine epithelial cells (hulECs, ATCC) were cultured in 6-well plates and were either loaded with oleic acid or not loaded with oleic acid after treatment. ApoB-48 was measured in culture supernatants (MyBioSource).
# db/db mice [6] = assay: MTTP activity and ApoB-48 protein expression in jejunum protein extracts of db/db mice; assay type: in vivo; conditions: protein extracts from jejunum of db/db mice, 25 μg/kg/day s.c.
# Experimental: Protein extracts were isolated from jejunum of diabetic (db/db) mice and lean control mice. Microsomal triglyceride transfer protein (MTTP) activity (pmole/μg protein/hour) was measured in protein extracts from diabetic (db/db) mice versus lean control mice treated or not with GHRH antagonist MIA-602. Further, ApoB-48 protein expression determined by densitometric analysis (optical density, O.D.) of ApoB-48 corrected by protein loading (vinculin) was also performed in protein extracts from diabetic (db/db) mice versus lean control mice treated or not with GHRH antagonist MIA-602.
# db/db mice [7] = assay: Fasting plasma triglycerides, ApoB-48 and VLDL (ELISA) in db/db mice treated with MIA-602; assay type: in vivo; conditions: fasting state, 25 μg/kg/day subcutaneous every other day for 4 weeks, vs untreated db/db mice
# Experimental: Obese 20-week old male diabetic (db/db) mice were treated with the GHRH antagonist MIA-602 (25 μg/kg/day, subcutaneous, every other day) or vehicle (untreated, n=6/group) for 4 weeks. Total triglycerides (mg/dl), ApoB-48-containing lipoproteins (ApoB-48, ng/ml), and very low density lipoprotein (VLDL, mg/dl) in plasma obtained from mice in the fasting state were measured by ELISA (MyBioSource).
# Given the high incidence of T2D and obesity and its association with CVD, experiments were carried out to investigate whether GHRH receptor antagonist MIA-602 administered subcutaneous suppresses elevation of TRL in mice homozygous for the diabetes spontaneous mutation Leprdb-BKS db (db/db), a valid model of human T2D/obesity. Heterozygous for Leprdb were used as lean controls.
# GHRH antagonist MIA-602 (25 μg/kg/day, subcutaneous, every other day), was given to a sub-group of 20 weeks old db/db mice for 4 weeks. FIGS. 2A-2C show the effect of the treatment with MIA-602 on triglycerides, ApoB-48, and very low density lipoprotein (VLDL) levels, respectively, in db/db mice.
# STZ-rats = STZ-rats (T1D model); U.S. Pat. No. 10,201,588; cited from earlier work
# [8] = tested on: C57BL/6 male mice fed on high fat diet (HFD); assay: CLAMS (food intake, body weight gain, activity-ambient, RER) in HFD mice treated with MIA-602; assay type: in vivo; conditions: HFD 24 weeks, 25 μg/kg/day subcutaneous for last 12 weeks
# Experimental: 12-Week old C57BL/6 male mice were fed on a high fat diet (HFD) or control diet (CD) for 12-weeks. Mice fed on HFD were treated with the GHRH antagonist MIA-602 (25 μg/kg/day, subcutaneous) or vehicle for 12-weeks. At the end of treatment, mice were placed individually in metabolic (CLAMS) system and a) food intake, b) body weight gain, c) activity-ambient, and d) respiratory exchange ratio were measured.
# db/db mice [9] = assay: Fasting blood glucose, HbA1c and glucagon in db/db mice; assay type: in vivo; conditions: 25 μg/kg/day subcutaneous for 12 weeks, vs untreated db/db mice
# Experimental: Male db/db mice, 12 weeks of age were treated with the GHRH antagonist MIA-602 (25 μg/kg/day, subcutaneous, n=6) or vehicle (untreated, n=6/group) for 12 weeks. Samples were obtained from tail bleeding to determine (A) Fasting blood glucose (AlphaTRAK), (B) HbA1c (Crystal Chem) and (C) Glucagon.
# [10] = tested on: rat small intestine epithelial cells (IEC); conditions: U.S. Pat. No. 10,201,588; cited from earlier work
substance,measurement,setting,value
5FPhAC-Ada-Tyr-DArg-Asp-Ala-Ile-5FPhe-Thr-Ala-Har-Tyr(Me)-Arg-Lys-Val-Leu-Abu-Gln-Leu-Ser-Ala-Arg-Lys-Leu-Leu-Gln-Asp-Ile-Nle-DArg-Har-Ada-NH2 [AVR-352],ApoB-48 protein content in small intestine epithelium,[1],significant reduction
same,MTTP protein content in small intestine epithelium,[1],without significantly affecting
same,"daily activity-ambient, dark cycle",[2]; dark cycle,significantly higher
same,"daily activity-ambient, light cycle",[2]; light cycle,no significant differences
same,body weight gain (%),[2],significantly lower
same,fasting total triglycerides in plasma,[3],significantly reduced
same,postprandial increase of triglyceride plasma levels,[4],significantly blunted
"GHRH: native growth hormone releasing hormone, the naturally occurring ligand of GHRH receptor (YADAIFTNSYRKVLGQLSARKLLQDIMSRQQGESNQERGARARL; ends and bridges not checked; UniProt P01286 32-75, looked up) [reference compound]","ApoB-48 released in the culture medium, different concentrations",[5]; different concentrations of native GHRH,increased levels of ApoB-48 were released in the culture medium in a dose-dependent manner
Tyr-Ala-Asp-Ala-Ile^5-Phe-Thr-Asn-Ser-Tyr^10-Arg-Lys-Val-Leu-Gly^15-Gln-Leu-Ser-Ala-Arg^20-Lys-Leu-Leu-Gln-Asp^25-Ile-Met-Ser-Arg^29-NH2 [MIA-602],microsomal triglyceride transfer protein (MTTP) activity,db/db mice [6],not associated with significant changes
same,"ApoB-48 levels (densitometry, corrected by vinculin)",db/db mice [6]; vs untreated,significantly lower levels
same,ApoB-48-containing lipoproteins in plasma,db/db mice [7],significantly reduced
same,total triglycerides in plasma,db/db mice [7],significantly reduced
same,very low density lipoprotein (VLDL) in plasma,db/db mice [7],significantly reduced
same,ApoB-48 lipoproteins in STZ-rats,STZ-rats,reduced
same,respiratory exchange ratio (RER),[8]; vs non-treated mice,slightly but significantly lower
same,body weight gain,[8]; vs untreated HFD mice,significant reduction
same,daily activity-ambient,[8]; vs untreated HFD mice,significant increase
same,food intake,[8]; vs untreated HFD mice,No changes
same,fasting blood glucose level,db/db mice [9],modest but significant reduction
same,glucagon levels,db/db mice [9],significant reduction
same,hemoglobin A1c (HbA1c) level,db/db mice [9],modest but significant reduction
same,ApoB-48 lipoproteins in rat IEC in vitro,[10],reduced
same,impaired signaling of Ex-4 in the presence of JI-34 (ApoB-48 secretion),"[5]; MIA-602 1 μM, 1 h co-treatment with JI-34 1 μM and Ex-4 10 nM",completely restored
